In a melting point compilation (Tetko et al.):

Row | SMILES | melting point [°C]
1 | Cn1cc([N+](=O)[O-])cc1C(=O)NCC(=O)O | 130 to 132
2 | NNC(=O)c1cc(-c2ccc(Cl)cc2)nc2ccccc12 | 238 to 240
3 | Nc1nnc(CCc2ccccc2)o1 | 195 to 197
4 | Nc1ccc(N2CCSCC2)cc1 | 109 to 111
5 | COc1cccc(-c2nnn[nH]2)c1 | 181 to 183
6 | CS(=O)(=O)N1CCC(=O)CC1 | 97 to 99
7 | O=S(=O)(Cl)c1ccc(S(F)(F)(F)(F)F)cc1 | 82 to 84
8 | CCCC(=O)NC1CCCNC1 (configuration not stated) | 57 to 59
9 | O=C(O)Cc1ccc(OC(F)F)cc1 | 78 to 80
10 | Sc1nnc(Nc2cccc(Cl)c2)s1 | 210 to 212
11 | O=c1[nH]c(=O)n(Cc2ccccc2)c2ncn(C3CCCC3)c12 | 252 to 254
12 | Cc1cc(O)ccc1C(C)C | 111 to 114
13 | CC(=O)Nc1sc(C)c(C)c1C(=O)O | 217 to 219
14 | Cc1nc(O)nc(O)c1N | 259 to 261
15 | O=Cc1cc(Cl)cc([N+](=O)[O-])c1O | 105 to 107
16 | CC(C)(C)CC(=O)NN | 51 to 53
17 | Cc1ccc2c(c1)C(=O)N(C(C)C(=O)O)C2=O (configuration not stated) | 141 to 143
18 | CCC(=CC(=O)O)c1ccc(OC)cc1 | 130 to 132
19 | O=C(CSc1cccs1)Nc1ccc(C(=O)O)cc1 | 233 to 235

Row | SMILES | melting point [°C]
20 | FC(F)(F)Cc1nc2cc(Br)ccc2[nH]1 | 139 to 141
21 | Cn1ccc(C(=O)O)cc1=O | 219 to 221
22 | Cc1nn(C)c(C)c1CCC(=O)O | 137 to 139
23 | COC(=O)C(=O)CC(=O)c1ccc(C)cc1C | 63 to 65
24 | COC(=O)c1ccc2ccccc2n1 | 83 to 85
25 | COC(=O)c1ccc(C(Br)Br)cc1 | 42 to 45
26 | CCn1c(SCC(=O)N2c3ccccc3Sc3ccccc32)nnc1-c1ccco1 | 152 to 154
27 | CS(=O)(=O)c1cc(C(=O)O)cc([N+](=O)[O-])c1 | 229 to 231
28 | Nc1nc(-c2ccc3c(c2)OCCO3)cs1 | 180 to 182
29 | Cc1ccc(C#N)cc1N | 76 to 78
30 | COc1ccc2[nH]c(NCc3ccccc3)nc2c1 | 179 to 181
31 | C#CCOc1ccc(C=O)cc1 | 75 to 77
32 | CC(C)C(NC(N)=O)C(=O)O (configuration not stated) | 203 to 207
33 | O=C(O)c1ccc(-c2ccc(Cl)cc2)s1 | 260 to 262
34 | O=C(O)Cc1csc(-c2ccc(F)cc2)n1 | 129 to 131
35 | Nc1ccc(F)c(S(=O)(=O)N2CCOCC2)c1 | 128 to 130
36 | Cc1cc(C(=O)O)nn1-c1cccc(C#N)c1 | 249 to 251
37 | N#CCOc1ccc(CC(=O)O)cc1 | 111 to 113
38 | OCc1ccc2c(c1)CCC2 | 69 to 71

Row | SMILES | melting point [°C]
39 | CC1CCCN(Cc2csc(N)n2)C1 (configuration not stated) | 136 to 138
40 | COc1ccc(CCC(=O)O)cc1O | 149 to 151
41 | O=C1CC(C(F)(F)F)NCCN1 (configuration not stated) | 136 to 138
42 | Cc1nn(C)c(Cl)c1/C=C/C(=O)O | 156 to 158
43 | O=C(O)CCNC(=O)Cc1ccccc1 | 109 to 111
44 | CCOC(=O)c1nn(-c2ccccc2)cc1O | 86 to 88
45 | Cc1nc(-c2c[nH]c(C(=O)O)c2)cs1 | 209 to 211
46 | CN(CC(=O)Nc1ccc(Cl)c(C(F)(F)F)c1)C(=O)CCl | 164 to 165
47 | O=C(c1ccccc1)c1cc(Br)ccc1F | 67 to 69
48 | NC(=O)CCn1ccnc1 | 137 to 139
49 | Cc1ccc(S(=O)(=O)N(O)c2ccccc2)cc1 | 36 to 40
50 | CC(=O)N1CCC(N)CC1 | 19 to 21
51 | CC(=O)CC(=O)Nc1ccc(NC(=O)C2CC2)cc1 | 183 to 185
52 | O=C1NC(=O)C(c2ccc(Cl)cc2Cl)N1 (configuration not stated) | 179 to 181
53 | O=[N+]([O-])c1cc(S(=O)(=O)N2CCOCC2)ccc1O | 217 to 219
54 | Cc1csc(NC(C)C(=O)O)n1 (configuration not stated) | 189 to 191
55 | O=C1COc2cc(Br)c(S(=O)(=O)Cl)cc2N1 | 211 to 213
56 | COc1ccc(OCc2cc(C(=O)O)c(C)o2)cc1 | 123 to 133
57 | C[C@H](N)C(N)=O | 67 to 69
